Laboratory results published in patent publication US20080220140A1, “USE OF PROPENYLPHENYL GLYCOSIDES FOR ENHANCING SWEET SENSORY IMPRESSIONS” (SYMRISE GmbH & Co. KG, priority 2007, published 2008).

Columns and labels:
[1] = Enhancement of the sweet impression of sucrose-containing yoghurt, rated 1-10 by a group of experts; assay type: in vivo; conditions: 200 ppm in yoghurt (0.5% fat content), sucrose 5%
Description: In order to quantify the enhancement of a sweet impression by addition of the propenylphenyl glycosides to be used according to the invention, the sweetness of sucrose-containing yoghurt (0.5% fat content) and of samples containing the same amount of sucrose and in addition a specific concentration of the propenylphenyl glycosides of formula (I) to be used according to the invention was determined by a group of experts (rating 1 [extremely slightly sweet] to 10 [extremely sweet]). Evaluation was carried out by calculating the enhancement (in %) of the sweetness impression from the average values of the assessments of the yoghurts containing sucrose (a) or sucrose and propenylphenyl glycoside (b).

[2] = Low-fat yoghurts with reduced sugar, sensory duo test with 16 panellists; assay type: in vivo; conditions: yoghurt 0.1% fat, 8% versus 10% sucrose; compound 1 0.015%, hesperetin 0.01%
Description: Comparison preparation with sugar (A) Comparison preparation with reduced sugar content […] Preparations according to the invention with reduced sugar content and compound 1 (C) Comparison preparation with reduced sugar content and hesperetin (D)
The ingredients were mixed and cooled at 5° C.

Compound	% Enhancement of the sweetness impression ([1]; (16/10), p < 0.05)	Sweetness impression (1-10) b) with ([1]; rating 1 extremely slightly sweet to 10 extremely sweet)	Compensation of the loss of sweetness as a result of sugar reduction [2]
C=CCc1ccc(O[C@@H]2O[C@H](CO)[C@@H](O)[C@H](O)[C@H]2O)cc1 [compound 1, 1-O-[4-(propen-2-enyl)phenyl]-D-glucopyranoside]	+24%	4.9 ± 1.4	
COc1ccc(C2CC(=O)c3c(O)cc(O)cc3O2)cc1O (stereo not drawn) [hesperetin, reference compound]			less good results
